Results as given in patent publication US20260374756A1, “HETEROCYCLIC COMPOUNDS AS INHIBITORS OF MONOACYLGLYCEROL LIPASE (MAGL)” (Hoffmann-La Roche Inc., priority 2022, published 2026).

target: T1, hMAGL (Homo sapiens, UniProt Q99685); experiment: 2-AG assay: MAGL inhibition, hydrolysis of 2-arachidonoylglycerol to arachidonic acid followed by mass spectrometry; assay type: biochemical
T1 sequence (Q99685 1-303): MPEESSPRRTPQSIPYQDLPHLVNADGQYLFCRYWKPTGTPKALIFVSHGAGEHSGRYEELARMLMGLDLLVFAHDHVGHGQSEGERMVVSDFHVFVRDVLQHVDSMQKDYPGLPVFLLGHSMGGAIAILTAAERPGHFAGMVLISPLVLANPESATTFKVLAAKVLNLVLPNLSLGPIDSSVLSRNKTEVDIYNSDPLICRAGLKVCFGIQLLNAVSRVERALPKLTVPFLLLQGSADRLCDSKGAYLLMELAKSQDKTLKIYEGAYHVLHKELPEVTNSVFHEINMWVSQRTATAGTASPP
Summary of the method: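 Read-out is LC-MS/MS of arachidonic acid released from 2-arachidonoylglycerol (8 μM final), normalised to d8-arachidonic acid internal standard after acetonitrile quench. Enzyme […] and compound were pre-mixed 15 min, then reacted 30 min, both at RT, in Tris/EDTA buffer with 0.01% Tween-20 and 2.5% DMSO.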

Structure (SMILES)	IC50
O=C(N1CC2(CC(Cc3cc(C(F)(F)F)nn3CC(F)(F)F)C2)C1)N1CC2(CC(n3cnc(C(F)(F)F)n3)C2)C1 [Example 140, [6-[[2-(2,2,2-trifluoroethyl)-5-(trifluoromethyl)pyrazol-3-yl]methyl]-2-azaspiro[3.3]heptan-2-yl]-[6-[3-(trifluoromethyl)-1,2,4-triazol-1-yl]-2-azaspiro[3.3]heptan-2-yl]methanone]	0.47 nM
O=C(N1CC2(CC(c3cc(C4CC4)n[nH]3)C2)C1)N1CC2(CN(Cc3nc(C(F)(F)F)no3)C2)C1 [Example 171, [6-(3-cyclopropyl-1H-pyrazol-5-yl)-2-azaspiro[3.3]heptan-2-yl]-[6-[[3-(trifluoromethyl)-1,2,4-oxadiazol-5-yl]methyl]-2,6-diazaspiro[3.3]heptan-2-yl]methanone]	9.95 nM
O=C(N1CC2(CC(Cc3cc(C4(C(F)(F)F)CC4)[nH]n3)C2)C1)N1CC2(CC(n3cnc(C(F)(F)F)n3)C2)C1 [Example 354]	0.14 nM
O=C(N1CC2(CC(Cc3cnn(CC(F)(F)F)c3)C2)C1)N1CC2(CC(c3cc(C4CC4)n[nH]3)C2)C1 [Example 290, [6-(3-cyclopropyl-1H-pyrazol-5-yl)-2-azaspiro[3.3]heptan-2-yl]-[6-[[1-(2,2,2-trifluoroethyl)pyrazol-4-yl]methyl]-2-azaspiro[3.3]heptan-2-yl]methanone]	0.86 nM
O=C(N1CC2(CC(n3cnc(C(F)(F)F)n3)C2)C1)N1CC2(CN(Cc3cnn(CC(F)(F)F)c3)C2)C1 [Example 109, [6-[[1-(2,2,2-trifluoroethyl)pyrazol-4-yl]methyl]-2,6-diazaspiro[3.3]heptan-2-yl]-[6-[3-(trifluoromethyl)-1,2,4-triazol-1-yl]-2-azaspiro[3.3]heptan-2-yl]methanone]	1380 nM
Cn1nc(C(F)(F)F)cc1CN1CCC2(CC1)CN(C(=O)N1CC3(CC(n4cnc(C(F)(F)F)n4)C3)C1)C2 [Example 25]	25.2 nM
O=C(N1CC2(CC(Cc3n[nH]c(C(F)(F)F)n3)C2)C1)N1CC2(CC(n3cnc(C4(O)CC4)n3)C2)C1 [Example 11, [6-[3-(1-hydroxycyclopropyl)-1,2,4-triazol-1-yl]-2-azaspiro[3.3]heptan-2-yl]-[6-[[5-(trifluoromethyl)-1H-1,2,4-triazol-3-yl]methyl]-2-azaspiro[3.3]heptan-2-yl]methanone]	20.4 nM
O=C(N1CC2(CC(Cc3cn(CC(F)(F)F)nn3)C2)C1)N1CC2(CC(n3cnc(C4CC4)n3)C2)C1 [Example 347, [6-(3-cyclopropyl-1,2,4-triazol-1-yl)-2-azaspiro[3.3]heptan-2-yl]-[6-[[1-(2,2,2-trifluoroethyl)triazol-4-yl]methyl]-2-azaspiro[3.3]heptan-2-yl]methanone]	1.77 nM
O=C(N1CC2(CC(n3cnc(C(F)(F)F)n3)C2)C1)N1CC2(CN(Cc3cn(CC(F)(F)F)nn3)C2)C1 [Example 107, [6-[[1-(2,2,2-trifluoroethyl)triazol-4-yl]methyl]-2,6-diazaspiro[3.3]heptan-2-yl]-[6-[3-(trifluoromethyl)-1,2,4-triazol-1-yl]-2-azaspiro[3.3]heptan-2-yl]methanone]	2670 nM
O=C(N1CC2(CC(n3cnc(C4CC4)n3)C2)C1)N1CC2(CN(Cc3ccn(CCC(F)(F)F)n3)C2)C1 [Example 321, [6-(3-cyclopropyl-1,2,4-triazol-1-yl)-2-azaspiro[3.3]heptan-2-yl]-[6-[[1-(3,3,3-trifluoropropyl)pyrazol-3-yl]methyl]-2,6-diazaspiro[3.3]heptan-2-yl]methanone]	49.1 nM
O=C(N1CC2(CC(n3cnc(C4CC4)n3)C2)C1)N1CC2(CN(Cc3ccn(C(F)(F)F)n3)C2)C1 [Example 117, [6-(3-cyclopropyl-1,2,4-triazol-1-yl)-2-azaspiro[3.3]heptan-2-yl]-[6-[[1-(trifluoromethyl)pyrazol-3-yl]methyl]-2,6-diazaspiro[3.3]heptan-2-yl]methanone]	16 nM
Cn1ncc(P(C)(C)=O)c1CN1CC2(C1)CN(C(=O)N1CC3(CC(n4cnc(C5CC5)n4)C3)C1)C2 [Example 228, [6-(3-cyclopropyl-1,2,4-triazol-1-yl)-2-azaspiro[3.3]heptan-2-yl]-[6-[(4-dimethylphosphoryl-2-methyl-pyrazol-3-yl)methyl]-2,6-diazaspiro[3.3]heptan-2-yl]methanone]	210 nM
Cc1nc(C)c(CN2CC3(C2)CN(C(=O)N2CC4(CC(n5cnc(C6CC6)n5)C4)C2)C3)s1 [Example 302, [6-(3-cyclopropyl-1,2,4-triazol-1-yl)-2-azaspiro[3.3]heptan-2-yl]-[6-[(2,4-dimethylthiazol-5-yl)methyl]-2,6-diazaspiro[3.3]heptan-2-yl]methanone]	9.77 nM
Cc1nn(CC(F)(F)F)cc1CN1CC2(C1)CN(C(=O)N1CC3(CC(n4cnc(C(F)(F)F)n4)C3)C1)C2 [Example 112, [6-[[3-methyl-1-(2,2,2-trifluoroethyl)pyrazol-4-yl]methyl]-2,6-diazaspiro[3.3]heptan-2-yl]-[6-[3-(trifluoromethyl)-1,2,4-triazol-1-yl]-2-azaspiro[3.3]heptan-2-yl]methanone]	640 nM
O=C(N1CC2(CC(n3cnc(C4CC4)n3)C2)C1)N1CC2(CN(Cc3nc(C4(C(F)(F)F)CC4)no3)C2)C1 [Example 338, [6-(3-cyclopropyl-1,2,4-triazol-1-yl)-2-azaspiro[3.3]heptan-2-yl]-[6-[[3-[1-(trifluoromethyl)cyclopropyl]-1,2,4-oxadiazol-5-yl]methyl]-2,6-diazaspiro[3.3]heptan-2-yl]methanone]	4.03 nM
O=C(N1CC2(CC(n3cnc(C4CC4)n3)C2)C1)N1CC2(CN(Cc3nc(C4CC4)ns3)C2)C1 [Example 44, [6-[(3-cyclopropyl-1,2,4-thiadiazol-5-yl)methyl]-2,6-diazaspiro[3.3]heptan-2-yl]-[6-(3-cyclopropyl-1,2,4-triazol-1-yl)-2-azaspiro[3.3]heptan-2-yl]methanone]	5.42 nM
O=C(N1CC2(CC(n3cnc(C4(O)CC4)n3)C2)C1)N1CC2(CN(Cc3nc(C4CC4)cs3)C2)C1 [Example 240, [6-[(4-cyclopropylthiazol-2-yl)methyl]-2,6-diazaspiro[3.3]heptan-2-yl]-[6-[3-(1-hydroxycyclopropyl)-1,2,4-triazol-1-yl]-2-azaspiro[3.3]heptan-2-yl]methanone]	232 nM

More lines, now with the values ahead:

IC50	Structure (SMILES)
190 nM	O=C(N1CC2(CC(n3cnc(C(F)F)n3)C2)C1)N1CC2(CN(Cc3cc(C(F)(F)F)n[nH]3)C2)C1 [Example 311, [6-[3-(difluoromethyl)-1,2,4-triazol-1-yl]-2-azaspiro[3.3]heptan-2-yl]-[6-[[3-(trifluoromethyl)-1H-pyrazol-5-yl]methyl]-2,6-diazaspiro[3.3]heptan-2-yl]methanone]
18.7 nM	CC(C)(C)c1conc1CN1CC2(C1)CN(C(=O)N1CC3(CC(n4cnc(C(F)(F)F)n4)C3)C1)C2 [Example 255, [6-[(4-tert-butylisoxazol-3-yl)methyl]-2,6-diazaspiro[3.3]heptan-2-yl]-[6-[3-(trifluoromethyl)-1,2,4-triazol-1-yl]-2-azaspiro[3.3]heptan-2-yl]methanone]
9.26 nM	Cn1ncc(C(F)(F)F)c1CN1CC2(C1)CN(C(=O)N1CC3(CC(n4cnc(C(F)(F)F)n4)C3)C1)C2 [Example 158, [6-[[2-methyl-4-(trifluoromethyl)pyrazol-3-yl]methyl]-2,6-diazaspiro[3.3]heptan-2-yl]-[6-[3-(trifluoromethyl)-1,2,4-triazol-1-yl]-2-azaspiro[3.3]heptan-2-yl]methanone]
260 nM	O=C(N1CC2(CC(n3cnc(C(F)(F)F)n3)C2)C1)N1CC2(CN(Cc3ncc(C(F)(F)F)[nH]3)C2)C1 [Example 231, [6-[[5-(trifluoromethyl)-1H-imidazol-2-yl]methyl]-2,6-diazaspiro[3.3]heptan-2-yl]-[6-[3-(trifluoromethyl)-1,2,4-triazol-1-yl]-2-azaspiro[3.3]heptan-2-yl]methanone]
161 nM	O=C(N1CC2(CC(n3cnc(C(F)(F)F)n3)C2)C1)N1CC2(CN(Cc3ccn(C(F)(F)F)n3)C2)C1 [Example 116, [6-[[1-(trifluoromethyl)pyrazol-3-yl]methyl]-2,6-diazaspiro[3.3]heptan-2-yl]-[6-[3-(trifluoromethyl)-1,2,4-triazol-1-yl]-2-azaspiro[3.3]heptan-2-yl]methanone]
3.8 nM	O=C(N1CC2(CC(n3cnc(C4CC4)n3)C2)C1)N1CC2(CN(Cc3cc(C(F)(F)F)sn3)C2)C1 [Example 156, [6-(3-cyclopropyl-1,2,4-triazol-1-yl)-2-azaspiro[3.3]heptan-2-yl]-[6-[[5-(trifluoromethyl)isothiazol-3-yl]methyl]-2,6-diazaspiro[3.3]heptan-2-yl]methanone]
14.8 nM	Cn1nc(C2CC2)cc1CN1CC2(C1)CN(C(=O)N1CC3(CC(n4cnc(C(F)(F)F)n4)C3)C1)C2 [Example 271]
27.3 nM	Cn1ncc(CN2CC3(C2)CN(C(=O)N2CC4(CC(n5cnc(C(F)(F)F)n5)C4)C2)C3)c1C(F)(F)F [Example 164, [6-[[1-methyl-5-(trifluoromethyl)pyrazol-4-yl]methyl]-2,6-diazaspiro[3.3]heptan-2-yl]-[6-[3-(trifluoromethyl)-1,2,4-triazol-1-yl]-2-azaspiro[3.3]heptan-2-yl]methanone]
25.6 nM	N=S(=O)(c1cnn(CC2CC3(C2)CN(C(=O)N2CC4(CC(n5cnc(C(F)F)n5)C4)C2)C3)c1)C(F)(F)F (centres unmarked) [Example 324, [6-[3-(difluoromethyl)-1,2,4-triazol-1-yl]-2-azaspiro[3.3]heptan-2-yl]-[6-[[4-(trifluoromethylsulfonimidoyl)pyrazol-1-yl]methyl]-2-azaspiro[3.3]heptan-2-yl]methanone]
